In publication PMC4242290 (Nuclear Receptor Signaling, 2014):
“Also recorded” adds a separate entry of the source. Structures can show the parent of a compound that is named as a salt. *1 amine or outer side, *2 acyl side, *3 side chain or, on linkers, in order; H or OH if unused. Where a SMILES comes first, the peptide text is derived from it. Bridges are numbered along the chain shown (N, C = ends). Roman numbers before positions name the chains, in order. [ ]: non-standard residue; d: D form. Actinocin(9to1) = Cc1c2oc3c(C)ccc(C(=O)[*:1])c3nc-2c(C(=O)[*:2])c(N)c1=O; NMeV = CN[C@H](C(=O)O)C(C)C; Sar = CNCC(=O)O

Key:
ERβ [1] = target: T1, ERβ (Homo sapiens, UniProt Q92731); conditions: cited from earlier work
T1 sequence (Q92731 whole entry): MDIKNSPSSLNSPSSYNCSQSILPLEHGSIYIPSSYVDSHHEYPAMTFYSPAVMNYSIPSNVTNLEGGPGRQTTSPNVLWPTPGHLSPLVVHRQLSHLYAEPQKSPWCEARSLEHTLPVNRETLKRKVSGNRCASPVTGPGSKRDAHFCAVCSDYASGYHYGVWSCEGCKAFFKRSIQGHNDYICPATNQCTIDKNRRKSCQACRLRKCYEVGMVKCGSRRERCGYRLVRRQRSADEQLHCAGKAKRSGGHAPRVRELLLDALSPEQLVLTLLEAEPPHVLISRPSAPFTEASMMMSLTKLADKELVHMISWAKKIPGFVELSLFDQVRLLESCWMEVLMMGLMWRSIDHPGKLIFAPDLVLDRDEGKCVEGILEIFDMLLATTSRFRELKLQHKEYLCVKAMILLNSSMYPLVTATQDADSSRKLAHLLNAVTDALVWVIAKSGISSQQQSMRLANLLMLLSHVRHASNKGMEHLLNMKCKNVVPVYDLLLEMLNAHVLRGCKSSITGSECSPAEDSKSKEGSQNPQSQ

LNCaP cells = experiment: LNCaP cell proliferation; type: cell-based; conditions: 1 μM final concentration, 24 h treatment
His6-hERβ LBD = His6-hERβ LBD (Homo sapiens, UniProt Q92731); type: binding; conditions: for DSF primary screen: change in melting temperature of ERβ LBD: 500 µM
Sequence of His6-hERβ LBD (Q92731 261-530): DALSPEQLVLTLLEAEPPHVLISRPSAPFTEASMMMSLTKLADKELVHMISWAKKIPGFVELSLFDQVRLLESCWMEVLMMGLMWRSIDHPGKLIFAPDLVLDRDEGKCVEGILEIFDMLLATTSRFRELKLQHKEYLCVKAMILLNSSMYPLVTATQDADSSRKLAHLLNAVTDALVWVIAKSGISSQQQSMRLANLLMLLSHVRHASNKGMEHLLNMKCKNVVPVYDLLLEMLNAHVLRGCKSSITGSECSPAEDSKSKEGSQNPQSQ

ERβ [2] = target: T1, ERβ; type: binding; conditions: for β-selectivity (fold): IC50 for ERα divided by IC50 for ERβ, from FP
ERα [3] = target: T2, ERα (Homo sapiens, UniProt P03372); type: binding
T2 sequence (P03372 1-595): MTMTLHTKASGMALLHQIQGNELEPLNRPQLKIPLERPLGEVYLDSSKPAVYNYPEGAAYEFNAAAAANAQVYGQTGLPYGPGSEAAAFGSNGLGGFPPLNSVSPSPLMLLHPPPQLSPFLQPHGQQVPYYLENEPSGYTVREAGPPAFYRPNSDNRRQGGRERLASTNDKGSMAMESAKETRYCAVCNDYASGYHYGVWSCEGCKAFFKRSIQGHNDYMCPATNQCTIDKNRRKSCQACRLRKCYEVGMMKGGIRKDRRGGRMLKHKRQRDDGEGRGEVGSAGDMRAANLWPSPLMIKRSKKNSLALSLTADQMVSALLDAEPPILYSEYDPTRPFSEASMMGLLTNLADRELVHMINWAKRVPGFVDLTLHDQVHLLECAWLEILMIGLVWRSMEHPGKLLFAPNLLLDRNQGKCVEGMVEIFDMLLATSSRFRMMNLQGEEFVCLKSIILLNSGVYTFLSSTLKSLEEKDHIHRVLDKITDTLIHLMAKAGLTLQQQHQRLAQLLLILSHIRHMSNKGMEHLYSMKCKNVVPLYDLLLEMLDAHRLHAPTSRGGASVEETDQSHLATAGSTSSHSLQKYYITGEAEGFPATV

full length ERβ = full length ERβ (Homo sapiens, UniProt Q92731); experiment: ERE-luciferase transactivation in HeLa cells, full length ERβ; type: cell-based
Sequence of full length ERβ (Q92731 whole entry): as the sequence (Q92731 whole entry) above

ERβ [4] = target: T1, ERβ; conditions: radioligand binding assay; cited from earlier work
[5] = Phase II double-blind clinical trial; cited from earlier work
GAL4 DBD-ERβ LBD = GAL4 DBD-ERβ LBD (Homo sapiens, UniProt Q92731); experiment: GAL4 transactivation assay in HEK293T cells; type: cell-based
Sequence of GAL4 DBD-ERβ LBD (Q92731 264-498 limits assumed): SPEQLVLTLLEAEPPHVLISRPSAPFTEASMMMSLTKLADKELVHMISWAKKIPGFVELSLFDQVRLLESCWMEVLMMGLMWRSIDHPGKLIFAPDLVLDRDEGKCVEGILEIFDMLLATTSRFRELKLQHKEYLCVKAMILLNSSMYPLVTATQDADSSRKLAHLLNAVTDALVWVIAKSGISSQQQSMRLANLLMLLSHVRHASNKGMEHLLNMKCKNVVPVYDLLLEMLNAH

ERβ [6] = target: T1, ERβ; conditions: transiently transfected MCF-7 cells; cited from earlier work
ERα [7] = target: T2, ERα; conditions: transiently transfected MCF-7 cells; cited from earlier work

c1ccc2c(Cc3c[nH]c4ccccc34)c[nH]c2c1 [3,3’-diindolylmethane]
Selectivity of binding to ERβ (ERβ [1]): did not bind selectively to ERβ

C[C@]12CC[C@H]3[C@@H](CC=C4C[C@@H](O)CC[C@@]43C)[C@@H]1CC[C@@H]2O [5-androstenediol]
ER subtype selectivity (ERβ [1]): ERβ selective

C[C@@H](CO)CCC[C@@H](C)[C@H]1CC[C@H]2[C@@H]3CC=C4C[C@@H](O)CC[C@]4(C)[C@H]3CC[C@]12C [27-hydroxycholesterol, reference compound]
LNCaP cell proliferation (cell viability) (LNCaP cells): Suppression of proliferation

C[C@]12CC[C@H](O)CC1=CC[C@@H]1[C@@H]2CC[C@]2(C)C(=O)CC[C@@H]12 [DHEA, dehydroepiandrosterone]
Tm of His6-hERβ LBD purification product (His6-hERβ LBD): ~ 55 ºC | DSF primary screen: change in melting temperature of ERβ LBD (His6-hERβ LBD): putative binders | Binding to ERβ in FP (competition with fluorescein labeled E2), result in words (ERβ [2]): binders | β-selectivity (fold) (ERβ [2]): greater than 2 fold | Binding to ERα in FP (competition with fluorescein labeled E2), result in words (ERα [3]): binders | Relative transactivation activity, full length ERβ (full length ERβ; 1 μM final concentration): greater capacity for ERβ activation than the selective partial agonist 27-hydroxycholesterol | ER subtype selectivity of transactivation (ERβ versus ERα) (full length ERβ; full length ERs, 1 μM): strong ERβ selectivity | LNCaP cell proliferation (cell viability) (LNCaP cells): Suppression of proliferation | Ki for ERβ compared with ERα (ERβ [4]): lower for ERβ than ERα

C=Cc1cc(O)cc2nc(-c3ccc(O)c(F)c3)oc12 [ERB-041]
Efficacy in rheumatoid arthritis [5]: failed to demonstrate efficacy

CCCCCC[C@H]1C(=O)O[C@H](C)[C@H](NC(=O)c2cccc(NC=O)c2O)C(=O)O[C@@H](C)[C@@H]1OC(=O)CC(C)C [antimycin A]
DSF primary screen: change in melting temperature of ERβ LBD (His6-hERβ LBD): elicited changes in the protein melting temperature

CCN(CC)CCOc1ccc(C(=C(Cl)c2ccccc2)c2ccccc2)cc1 [clomiphene citrate]
DSF primary screen: change in melting temperature of ERβ LBD (His6-hERβ LBD): putative binders | Binding to ERβ in FP (competition with fluorescein labeled E2), result in words (ERβ [2]): binders | IC50 (GAL4 DBD-ERβ LBD): 221 nM

Cc1c2oc3c(C)ccc(C(=O)N[C@@H]4C(=O)N[C@H](C(C)C)C(=O)N5CCC[C@H]5C(=O)N(C)CC(=O)N(C)[C@@H](C(C)C)C(=O)O[C@@H]4C)c3nc-2c(C(=O)N[C@@H]2C(=O)N[C@H](C(C)C)C(=O)N3CCC[C@H]3C(=O)N(C)CC(=O)N(C)[C@@H](C(C)C)C(=O)O[C@@H]2C)c(N)c1=O [dactinomycin] (I: T[dV]P[Sar][NMeV] / II: T[dV]P[Sar][NMeV]; ester I:1-I:C, II:1-II:C; linker I:N-II:N via Actinocin(9to1))
DSF primary screen: change in melting temperature of ERβ LBD (His6-hERβ LBD): elicited changes in the protein melting temperature

CC/C(=C(/CC)c1ccc(O)cc1)c1ccc(O)cc1 [diethylstilbestrol, reference compound]
Binding to ERβ in FP (competition with fluorescein labeled E2), result in words (ERβ [2]): binders

C[C@]12CC[C@H]3C(=CCc4cc(O)ccc43)[C@@H]1CCC2=O [equilin]
DSF primary screen: change in melting temperature of ERβ LBD (His6-hERβ LBD): putative binders

C[C@]12CC[C@@H]3c4ccc(O)cc4CC[C@H]3[C@@H]1C[C@@H](O)[C@@H]2O [estriol]
Binding to ERβ in FP (competition with fluorescein labeled E2), result in words (ERβ [2]): binders; also recorded: greater relative affinity than estrone

C#C[C@]1(O)CC[C@H]2[C@@H]3CCc4cc(O)ccc4[C@H]3CC[C@@]21C [ethinyl estradiol]
DSF primary screen: change in melting temperature of ERβ LBD (His6-hERβ LBD): putative binders

CC[C@]1(O)CC[C@H]2[C@@H]3CCC4=CCCC[C@@H]4[C@H]3CC[C@@]21C [ethylestrenol]
DSF primary screen: change in melting temperature of ERβ LBD (His6-hERβ LBD): putative binders

CCOC(=O)C1=C(C)NC(C)=C(C(=O)OC)C1c1cccc(Cl)c1Cl (centres unmarked) [felodipine]
DSF primary screen: change in melting temperature of ERβ LBD (His6-hERβ LBD): showed up as hits in the primary assay

CC[C@H](c1ccc(O)cc1)[C@@H](CC)c1ccc(O)cc1 [hexestrol, reference compound]
DSF primary screen: change in melting temperature of ERβ LBD (His6-hERβ LBD): putative binders | Binding to ERβ in FP (competition with fluorescein labeled E2), result in words (ERβ [2]): binders | Binding to ERα in FP (competition with fluorescein labeled E2), result in words (ERα [3]): binders | Ki for ERβ compared with ERα (ERβ [4]): the same for both isoforms

O=c1cc(-c2ccc(O)c(O)c2)oc2cc(O)cc(O)c12 [luteolin]
β-selectivity (fold) (ERβ [2]): greater than 2 fold | Activation of ERβ (ERβ [6]): very slight effect on ERβ | Activation of ERα (ERα [7]): no effect on ERα

O=C1C[C@@H](c2ccc(O)cc2)Oc2cc(O)cc(O)c21 [naringenin]
DSF primary screen: change in melting temperature of ERβ LBD (His6-hERβ LBD): putative binders | β-selectivity (fold) (ERβ [2]): greater than 2 fold

C[C@@H]1[C@H](O)[C@@H](C)/C=C/C=C/CC/C=C/C=C/C=C/C=C/C(O[C@H]2O[C@H](C)[C@@H](O)[C@H](N)[C@@H]2O)CC2O[C@](O)(CC(O)C(O)CCC(O)CC(O)CC(O)CC(=O)O[C@H]1C)CC(O)C2C(=O)O (some centres unmarked) [nystatin]
DSF primary screen: change in melting temperature of ERβ LBD (His6-hERβ LBD): elicited changes in the protein melting temperature

COc1cc(/C=C/c2ccc(O)cc2)cc(OC)c1 [pterostilbene]
DSF primary screen: change in melting temperature of ERβ LBD (His6-hERβ LBD): putative binders

C[C@H]1CCC[C@H](O)CCCCCc2cc(O)cc(O)c2C(=O)O1 [zeranol]
Binding to ERα in FP (competition with fluorescein labeled E2), result in words (ERα [3]): binders

goserelin acetate
DSF primary screen: change in melting temperature of ERβ LBD (His6-hERβ LBD): elicited changes in the protein melting temperature

medicarpin
β-selectivity (fold) (ERβ [2]): greater than 2 fold
